Results as given in ChEMBL document CHEMBL6087434, “An Activatable Heavy-Atom-Free Upconversion Photosensitizer for Targeted Imaging and Treatment of Tumors” (J Med Chem, 2024).
The source made the active and inactive calls. No cut-off for these calls is given here.

How the values were obtained:
[1] = Drug metabolism in human L02 cells assessed as NTR-mediated metabolism at 10 uM incubated for 30 mins by DAPI staining based CLSM analysis; type: ADME, cell-based; conditions: l02, 0.5 h
[2] = Toxicity in mouse model xenografted with human A549 cells assessed as damage in heart at 300 uM, iv measured after 14 days by H and E staining based analysis; type: organism-based; conditions: 336 h, time 14 day
A549 [3] = experiment: Inhibition of cell migration in human A549 cells under 808 nm light irradiation measured for 18 hrs by wound healing assay; type: functional, cell-based
[4] = Drug localization in human HeLa cells assessed as co-localization co-efficient at 10 uM by LysoTracker Green DND-2 dye based analysis; type: ADME, cell-based
4T1 [5] = experiment: Cytotoxicity against mouse 4T1 cells assessed as survival rate under laser light irradiation at 10 uM measured after 12 hrs by MTT assay relative to control; type: functional; conditions: 4T1, light or radiation study, read-out: Survival
[6] = Drug metabolism assessed as NTR(unknown origin)-mediated metabolism under 745 nm light irradiation by fluorescence based analysis; type: ADME; conditions: human
A549 [7] = experiment: Cytotoxicity against human A549 cells assessed as survival rate under laser light irradiation at 10 uM measured after 12 hrs by MTT assay relative to control; type: functional; conditions: A549, light or radiation study, read-out: Survival
[8] = Drug metabolism in human A549 cells assessed as NTR-mediated metabolism under 10 to 20 percent oxygen at 10 uM incubated for 30 mins by confocal fluorescence imaging based analysis; type: ADME, cell-based; conditions: a549, 0.5 h
A549 [9] = experiment: Induction of apoptosis in human A549 cells under 808 nm light irradiation by Annexin V-FITC/PI staining based flow cytometry; type: functional, cell-based
A549 [10] = experiment: Induction of singlet oxygen production in human A549 cells under 808 nm light irradiation by DCF-DA probe based analysis; type: functional, cell-based
A549 [11] = experiment: Antitumor activity against human A549 cells xenografted in mouse model assessed as cellular structural damage at 300 uM, iv administered every other day under laser light irradiation measured after 14 days by H and E staining based analysis; type: functional, organism-based; conditions: time 14.0 day
A549 [12] = experiment: Antitumor activity against human A549 cells xenografted in mouse model assessed as presence of necrotic cells at 300 uM, iv administered every other day under laser light irradiation measured after 14 days by H and E staining based analysis; type: functional, organism-based; conditions: time 14.0 day
[13] = Drug uptake in mouse model xenografted with human A549 cells at 300 uM, iv measured after 90 mins by fluorescence based imaging analysis; type: ADME, organism-based; conditions: in vivo, 1.5 h
4T1 [14] = experiment: Cytotoxicity against mouse 4T1 cells assessed as survival rate under absence of light upto 10 uM measured after 12 hrs by MTT assay relative to control; type: functional; conditions: up to 10 µM
HeLa [15] = experiment: Cytotoxicity against human HeLa cells assessed as survival rate under absence of light upto 10 uM measured after 12 hrs by MTT assay relative to control; type: functional; conditions: up to 10 µM
[16] = Toxicity in mouse model xenografted with human A549 cells assessed as damage in kidney at 300 uM, iv measured after 14 days by H and E staining based analysis; type: organism-based; conditions: 336 h, time 14 day
[17] = Drug metabolism in human A549 cells assessed as NTR-mediated metabolism under 5 percent oxygen at 10 uM incubated for 30 mins by DAPI staining based CLSM analysis; type: ADME, cell-based; conditions: a549, 0.5 h
A549 [18] = experiment: Antitumor activity against human A549 cells xenografted in mouse model assessed as tumor growth inhibition at 300 uM, iv administered every other day under laser light irradiation for 14 days; type: functional, organism-based; conditions: time 14.0 day
[19] = Toxicity in mouse model xenografted with human A549 cells assessed as damage in spleen at 300 uM, iv measured after 14 days by H and E staining based analysis; type: organism-based; conditions: 336 h, time 14 day
4T1 [20] = experiment: Cytotoxicity against mouse 4T1 cells assessed as survival rate under laser light irradiation at 2.5 uM measured after 12 hrs by MTT assay relative to control; type: functional; conditions: 4T1, light or radiation study, read-out: Survival
[21] = Toxicity in mouse model xenografted with human A549 cells assessed as damage in liver at 300 uM, iv measured after 14 days by H and E staining based analysis; type: organism-based; conditions: 336 h, time 14 day
A549 [22] = experiment: Cytotoxicity against human A549 cells assessed as survival rate under laser light irradiation measured after 12 hrs by MTT assay; type: functional, cell-based; conditions: dose <= 10.0 µM
4T1 [23] = experiment: Cytotoxicity against mouse 4T1 cells assessed as survival rate under laser light irradiation measured after 12 hrs by MTT assay; type: functional, cell-based; conditions: dose <= 10.0 µM
[24] = Toxicity in mouse model xenografted with human A549 cells assessed as body weight change at 300 uM, iv measured for 14 days; type: organism-based; conditions: 336 h, time 14 day
A549 [25] = experiment: Antitumor activity against human A549 cells xenografted in mouse model assessed as decrease in tumor re-occurence at 300 uM, iv administered every other day under laser light irradiation measured after 14 days during observation period; type: functional, organism-based; conditions: time 14.0 day
[26] = Toxicity in mouse model xenografted with human A549 cells assessed as damage in lung at 300 uM, iv measured after 14 days by H and E staining based analysis; type: organism-based; conditions: 336 h, time 14 day
HeLa [27] = experiment: Cytotoxicity against human HeLa cells assessed as survival rate under laser light irradiation at 2.5 uM measured after 12 hrs by MTT assay relative to control; type: functional; conditions: light or radiation study, read-out: Survival
HeLa [28] = experiment: Cytotoxicity against human HeLa cells assessed as survival rate under laser light irradiation measured after 12 hrs by MTT assay; type: functional, cell-based; conditions: dose <= 10.0 µM
A549 [29] = experiment: Antitumor activity against human A549 cells xenografted in mouse model assessed as tumor disappearance at 300 uM, iv administered every other day under laser light irradiation for 14 days relative to control; type: functional; conditions: time 14 day
HeLa [30] = experiment: Cytotoxicity against human HeLa cells assessed as survival rate under laser light irradiation at 10 uM measured after 12 hrs by MTT assay relative to control; type: functional; conditions: light or radiation study, read-out: Survival
A549 [31] = experiment: Cytotoxicity against human A549 cells under 808 nm light irradiation by DCF-DA probe based analysis; type: functional, cell-based
A549 [32] = experiment: Cytotoxicity against human A549 cells assessed as survival rate under absence of light upto 10 uM measured after 12 hrs by MTT assay relative to control; type: functional; conditions: up to 10 µM
[33] = Drug localization in human A549 cells assessed as co-localization co-efficient at 10 uM by LysoTracker Green DND-2 dye based analysis; type: ADME, cell-based; conditions: a549, 10 µM
[34] = Drug uptake in human A549 cells xenografted in mouse model at 300 uM, iv measured after 2 hrs by fluorescence based imaging analysis; type: ADME, organism-based; conditions: in vivo
A549 [35] = experiment: Cytotoxicity against human A549 cells assessed as survival rate under laser light irradiation at 2.5 uM measured after 12 hrs by MTT assay relative to control; type: functional; conditions: A549, light or radiation study, read-out: Survival
[36] = Induction of singlet oxygen quantum yield under 808 nm light irradiation by DPBF based assay; type: functional
[37] = Drug metabolism in human A549 cells assessed as NTR-mediated metabolism at 10 uM incubated for 30 mins by DAPI staining based CLSM analysis; type: ADME, cell-based; conditions: a549, 0.5 h
[38] = Drug metabolism in human HeLa cells assessed as NTR-mediated metabolism at 10 uM incubated for 30 mins by DAPI staining based CLSM analysis; type: ADME, cell-based; conditions: 0.5 h
A549 [39] = experiment: Induction of singlet oxygen production in human A549 cells by DCF-DA probe based analysis; type: functional, cell-based
[40] = Induction of singlet oxygen quantum yield assessed as decrease in absorption signal under 415 nm light irradiation measured after 15 mins by DPBF based assay; type: functional; set-up: scale not given: the % may be the effect or the level left
[41] = Induction of singlet oxygen quantum yield under 808 nm light irradiation in presence of NTR by DPBF based assay; type: functional
A549 [42] = experiment: Cytotoxicity against human A549 cells under near-infra red light irradiation; type: functional, cell-based
A549 [43] = experiment: Cytotoxicity against NAC-treated human A549 cells by DCF-DA probe based analysis; type: functional, cell-based
[44] = Photostability of compound upto 2 W/cm2 measured for 8 mins; type: physicochemical

## COBALTOUS CHLORIDE
[1]
  Drug metabolism: metabolite_detected

## CC[N+]1=C(/C=C/C2=C3Oc4cc(N(C)C(=O)OCc5ccc([N+](=O)[O-])cc5)ccc4C=C3CCC2)C(C)(C)c2c1ccc1ccccc21.I
[2]
  Activity: Non-toxic
A549 [3]
  inhibition: Active
[4]
  Activity: 0.88
4T1 [5]
  viability at 10 µM: < 40%
[6]
  Drug metabolism: metabolite_detected
A549 [7]
  viability at 10 µM: < 40%
[8]
  Drug metabolism: metabolite_notdetected
A549 [9]
  Activity: Active
A549 [10]
  Activity: Active
A549 [11]
  Activity: Active
A549 [12]
  Activity: Active
[13]
  Drug uptake: Active
4T1 [14]
  Survival: >85%
HeLa [15]
  Survival: >85%
[16]
  Activity: Non-toxic
[17]
  Drug metabolism: metabolite_detected
A549 [18]
  inhibition: Active
[19]
  Activity: Non-toxic
4T1 [20]
  viability at 2.5 µM: < 80%
[21]
  Activity: Non-toxic
A549 [22]
  Activity: Dose-dependent-effect
4T1 [23]
  Activity: Dose-dependent-effect
[24]
  Activity: Non-toxic
A549 [25]
  Activity: Active
[26]
  Activity: Non-toxic
HeLa [27]
  viability at 2.5 µM: < 80%
HeLa [28]
  Activity: Dose-dependent-effect
A549 [29]
  Activity: ~100%
HeLa [30]
  viability at 10 µM: < 40%
A549 [31]
  Activity: Active
A549 [32]
  Survival: >85%
[33]
  Activity: 0.9
[34]
  Drug uptake: Active
A549 [35]
  viability at 2.5 µM: < 80%

## CC[N+]1=C(/C=C/C2=C3Oc4cc(NC)ccc4C=C3CCC2)C(C)(C)c2ccccc21
[36]
  Activity: 0.005

## CC[N+]1=C(/C=C/C2=C3Oc4cc(N)ccc4C=C3CCC2)C(C)(C)c2ccccc21
[36]
  Activity: 0.005

## O=c1oc2ccccc2c(O)c1Cc1c(O)c2ccccc2oc1=O [DICUMAROL]
A549 [10]
  Activity: inactive
[37]
  Drug metabolism: metabolite_notdetected
A549 [31]
  Activity: inactive
[38]
  Drug metabolism: metabolite_notdetected

## CC[N+]1=C(/C=C/C2=C3Oc4cc(O)ccc4C=C3CCC2)C(C)(C)c2c1ccc1ccccc21
[36]
  Activity: 0.002

## CC[N+]1=C(/C=C/C2=C3Oc4cc(N)ccc4C=C3CCC2)C(C)(C)c2c1ccc1ccccc21
[36]
  Activity: 0.008

## CC[N+]1=C(/C=C/C2=C3Oc4cc(O)ccc4C=C3CCC2)C(C)(C)c2ccccc21
[36]
  Activity: 0.002

## CC[N+]1=C(/C=C/C2=C3Oc4cc(NC)ccc4C=C3CCC2)C(C)(C)c2c1ccc1ccccc21.[I-]
[36]
  Activity: 0.059
A549 [39]
  Activity: Active
A549 [9]
  Activity: Active
[40]
  Activity: 74.7%
[41]
  Activity: inactive
A549 [42]
  Activity: Active
A549 [43]
  Activity: inactive
[44]
  Stability: Stable
